Experimental data as given in patent US20240392239A1, “METHODS FOR MODULATING CELL PLURIPOTENCY AND SELF-RENEWAL PROPERTY” (Memorial Sloan-Kettering Cancer Center, priority 2021, published 2024).

Assays:
[1] = system: C2C12 myoblasts; test: [U-13C] glucose tracing of TCA cycle metabolites in C2C12 myoblasts; format: cell-based, mouse
Description: C2C12 cells were maintained at sub-confluence as myoblasts unless otherwise noted. All myoblast experiments were performed in high glucose DMEM supplemented with 10% FBS and 4 mM L-glutamine. For differentiation into myotubes, C2C12 cells were grown to 100% confluence for three days and then washed with PBS and changed into differentiation medium composed of high glucose DMEM supplemented with 2% horse serum (catalog no. 26050070; Gibco), 4 mM L-glutamine and 100× insulin-transferrin-selenium-ethanolamine (ITS-X; catalog no. 51500056; Gibco) for the indicated length of time (3, 5 or 7 days). Differentiation medium was refreshed every day. For non-small cell lung cancer (NSCLC) cell line studies, H2170, A549, and Calu-1 cell lines were thawed and passaged in RPMI-1640 supplemented with 10% FBS before being transitioned to high glucose DMEM supplemented with 10% FBS and 4 mM L-glutamine for several passages prior to experiments. […]
(§1) Gas chromatography-mass spectrometry. […] Samples were analyzed using an Agilent 7890A Gas Chromatograph coupled to an Agilent 5977C mass selective detector. […] Peaks representing compounds of interest were extracted and integrated using the MassHunter software v.B.08 (Agilent Technologies) and then normalized to both the internal standard (d5-2HG) peak area and protein content of triplicate samples as determined by bicinchoninic acid assay (Thermo Fisher Scientific). […]

[2] = system: mouse embryonic stem cells (ESCs); test: [U-13C] glucose tracing of TCA cycle metabolites in mouse embryonic stem cells; format: cell-based
Description: Metabolic analyses. […] For mass spectrometric analyses in C2C12 myoblasts and NSCLC cell lines, cells were seeded in six-well plates and medium was changed 24 h later. […] 48 h prior to harvest, myoblasts were supplemented with 1 μg/mL doxycycline to induce shRNA expression. For analysis of myotubes, cells seeded in six-well plates were grown to 100% confluence for 3 days, washed with PBS and changed to differentiation medium that was refreshed every day for 7 days. On the final day of differentiation, cells were washed with PBS and changed to experimental medium described above. For analysis of C2C12 myotube genetic hairpin lines, cells were processed as described above but medium was supplemented with 1 μg/mL doxycycline for the final four days of differentiation to induce shRNA expression. ESCs and NSCLC lines treated with inhibitors were processed as described above but medium was supplemented with DMSO, 50 μM BMS-303141 (catalog no. SML0784; […] Sigma) or 10 μM UK-5099 (catalog no. 4186; Tocris) for 24 h prior to harvest. […] After overnight incubation at -80° C., lysates were collected and centrifuged at 21,000 g for 20 min to remove protein. All extracts were further processed by LCMS (for analysis of NADH, lactate and pyruvate (deuterium labeling and lactate/pyruvate ratio) and succinate (deuterium labeling only) or GCMS (for all other analyses) as described below. Gas chromatography-mass spectrometry. […] Metabolites were further derivatized by adding 80 μl of N-methyl-N-(trimethylsilyl) trifluoroacetamide+1% TCMS (Thermo Fisher Scientific) and 70 μl ethyl acetate (Sigma-Aldrich) and then incubated at 37° C. for 30 min. Samples were analyzed using an Agilent 7890A Gas Chromatograph coupled to an Agilent […] mass selective detector. The gas chromatograph was operated in splitless injection mode with constant helium gas flow at 1 ml min^-1; 1 μl of derivatized metabolites was injected onto an HP-5 ms column and the gas chromatograph oven temperature ramped from 60 to 290° C. for 25 min. Peaks representing compounds of interest were extracted and integrated using the MassHunter software v.B.08 (Agilent Technologies) and then normalized to both the internal standard (d5-2HG) peak area and protein content of triplicate samples as determined by bicinchoninic acid assay (Thermo Fisher Scientific). Steady-state metabolite pool levels were derived by quantifying the following ions: d5-2HG, 354 m/z; αKG, 304 […]; citrate, 465 m/z; fumarate, 245 m/z; malate, 335 m/z; and succinate, 247 m/z. All peaks were manually inspected and verified relative to known spectra for each metabolite. Enrichment of [^13C] or [^2H] was assessed by quantifying the abundance of the following ions: aspartate, 334-346 m/z; citrate, 465-482 m/z; fumarate, 245-254 m/z; and malate, 335-347 m/z. […]

[3] = system: Acly-edited ESCs; settings: 2i/LIF withdrawal for 40 h, 5 mM sodium acetate (FIG. 12E)
Description: Western blotting. Protein lysates were extracted in 1×RIPA buffer (Cell Signaling Technology), separated by SDS-polyacrylamide gel electrophoresis and transferred to nitrocellulose membranes (Bio-Rad). For histone blots, cell pellets were flash frozen in ethanol and resuspended in Laemmli buffer for sonication. Samples were mixed with 5% BME and 0.01% bromophenol blue prior to identical separation as for protein lysates. Membranes were blocked in 3% milk in Tris-buffered saline with 0.1% Tween 20 (TBST) or 5% BSA in TBST and incubated at 4° C. with primary antibodies overnight. After TBST washes the next day, membranes were incubated with horseradish peroxidase-conjugated secondary antibodies for at least 2 h, incubated with enhanced chemiluminescence (Thermo Fisher Scientific) and imaged with an SRX-101A X-ray Film Processor (Konica Minolta). […]

[4] = system: control and Acly-edited ESCs; settings: labeled acetate, 5 mM; 40 h of 2i/LIF withdrawal (FIG. 12D)
Description: Fatty acid analyses. To analyze fatty acids in scrum/LIF+2i-cultured ESCs undergoing exit from pluripotency, ESCs were seeded in maintenance medium in six-well plates overnight. The next day, cells were washed with PBS and changed into medium containing a 1:1 mix of glutamine-free DMEM and Neurobasal medium including N-2 supplement, B-27 supplement, 2-mercaptoethanol and 2 mM L-glutamine. […] At harvest, lysates were collected in PBS and centrifuged at 6,800 g for 5 min to pellet cells. To isolate fatty acids, cell pellets were resuspended in 400 μl HPLC grade methanol followed by 800 μl HPLC grade chloroform and samples were vortexed for 10 min at 4° C. 300 μl HPLC grade water then added to induce phase separation. 800 μl of the bottom chloroform layer was moved to a new tube and lyophilized. Dried samples were saponified by resuspending in 1 ml of 80% methanol with 0.3 M KOH and heating at 80° C. for 1 h in a glass vial. […]
Liquid chromatography-mass spectrometry. […] Metabolite quantitation was performed using a Q Exactive HF-X Hybrid Quadrupole-Orbitrap Mass Spectrometer equipped with an Ion Max API source and H-ESI II probe, coupled to a Vanquish Flex Binary UHPLC system (Thermo Scientific). […] Metabolites were detected over mass range of 70-1050 m/z in full scan positive mode, or SIM in positive mode using a quadrupole isolation window of 0.7 m/z. […]

[5] = system: control and Acly-edited ESCs
Description: Quantification of gene expression. RNA was isolated from six-or twelve-well plates using TRIzol (Invitrogen) according to the manufacturer's instructions and 200 ng RNA was used for complementary DNA (cDNA) synthesis using the iScript cDNA Synthesis Kit (Bio-Rad). Quantitative real-time PCR analysis was performed in technical triplicate using QuantStudio 5 or 6 Flex (Applied Biosystems) with Power SYBR Green Master Mix (Thermo Fisher Scientific). All data were generated using cDNA from 3 independent wells for each condition. Actin was used as an endogenous control for all experiments. See Supplementary Table 1 for qRT-PCR primer sequences.

[6] = system: Acly-edited ESCs; settings: 2i/LIF withdrawal for 40 h; 5 mM sodium acetate (FIG. 12F)
Description: Viability assays. Serum/LIF+2i-adapted ESCs were seeded at a density of 24,000 cells per well of a 24-well plate in triplicate or quadruplicate. 24 h later, cells were washed with PBS and changed into either fresh scrum/LIF+2i medium or medium containing a 1:1 mix of glutamine-free DMEM and Neurobasal medium including N-2 supplement, B-27 supplement, 2-mercaptoethanol and 2 mM L-glutamine for 40 h. Cells were evaluated for propidium iodide (PI) on an LSRFortessa flow cytometer using FACSDiva software v8.0 (BD Biosciences). Analysis of PI exclusion was performed with FCS Express v.7.05 or FlowJo v10.8.0.

[7] = system: ESC; settings: previous reports (ref 39); cited from earlier work
[8] = system: control and Acly-edited ESCs; settings: 2i/LIF withdrawal for 40 h with 5 mM sodium acetate, reseeded into 2i and LIF (FIG. 12K)
Text: Colony formation assay. […] Medium was refreshed every 3 days.

[9] = system: ASNase-expressing 143B human osteosarcoma cells; test: [U-13C] asparagine tracing in ASNase-expressing 143B cells; format: cell-based; settings: 50 μM for 24 h (FIGS. 6E and 6F)
Description: 143B cells were plated in six-well plates; 24 h later, media was changed to DMEM supplemented with 10% dialyzed FBS, 1 mM asparagine and DMSO or 50 μM BMS-303141. After 20 h, media was changed to DMEM supplemented with 10% dialyzed FBS, 1 mM [U-^13C]asparagine and DMSO or 50 μM BMS-303141. Cells were extracted with 300 μL 80% methanol containing Valine-D8 as an internal control. 143B extracts were further processed by LCMS, described below.
Liquid chromatography-mass spectrometry.

[10] = system: non-small cell lung cancer (NSCLC) cell lines (H2170, A549, Calu-1); test: Isotope tracing ([U-13C] glucose or [U-13C] glutamine) of TCA cycle metabolites in NSCLC cell lines; format: cell-based, human; settings: 50 μM for 24 h
Description: C2C12 cells were maintained at sub-confluence as myoblasts unless otherwise noted. All myoblast experiments were performed in high glucose DMEM supplemented with 10% FBS and 4 mM L-glutamine. For differentiation into myotubes, C2C12 cells were grown to 100% confluence for three days and then washed with PBS and changed into differentiation medium composed of high glucose DMEM supplemented with 2% horse serum (catalog no. 26050070; Gibco), 4 mM L-glutamine and 100× insulin-transferrin-selenium-ethanolamine (ITS-X; catalog no. 51500056; Gibco) for the indicated length of time (3, 5 or 7 days). Differentiation medium was refreshed every day. For non-small cell lung cancer (NSCLC) cell line studies, H2170, A549, and Calu-1 cell lines were thawed and passaged in RPMI-1640 supplemented with 10% FBS before being transitioned to high glucose DMEM supplemented with 10% FBS and 4 mM L-glutamine for several passages prior to experiments. 143B cells were maintained in high glucose DMEM supplemented with sodium pyruvate, 10% FBS and penicillin-streptomycin. All cells routinely tested negative for Mycoplasma.
For mass spectrometric analyses in C2C12 myoblasts and NSCLC cell lines, cells were seeded in six-well plates and medium was changed 24 h later. […] 48 h prior to harvest, myoblasts were supplemented with 1 μg/mL doxycycline to induce shRNA expression. For analysis of myotubes, cells seeded in six-well plates were grown to 100% confluence for 3 days, washed with PBS and changed to differentiation medium that was refreshed every day for 7 days. On the final day of differentiation, cells were washed with PBS and changed to experimental medium described above. For analysis of C2C12 myotube genetic hairpin lines, cells were processed as described above but medium was supplemented with 1 μg/mL doxycycline for the final four days of differentiation to induce shRNA expression. ESCs and NSCLC lines treated with inhibitors were processed as described above but medium was supplemented with DMSO, 50 μM BMS-303141 (catalog no. SML0784; Sigma), 5 mM dichloroacetate (catalog no. 3447795; Sigma) or 10 μM UK-5099 (catalog no. 4186; Tocris) for 24 h prior to harvest. At harvest, metabolites were extracted with 1 mL ice-cold 80% methanol containing 2 μM deuterated 2-hydroxyglutaratc (d-2-hydroxyglutaric-2,3,3,4,4-d5 acid (d5-2HG)). […]
as §1

[11] = system: Rex1::GFPd2 ESCs; test: Exit from naïve pluripotency, Rex1::GFPd2 reporter analysis; format: cell-based, mouse; settings: 2i/LIF withdrawal for 40 h; 50 μM (FIG. 4I)
Description: 2i/LIF-cultured ESCs were seeded at least 24 h prior to being washed with PBS and changed into serum-free maintenance medium without 2i or LIF at the indicated time before harvest (12, 24 or 40 h). Unless otherwise noted, cells were adapted to serum/LIF+2i culture prior to exit from naïve pluripotency.
Rex1::GFPd2 analysis. On the day of analysis, cells were trypsinized and resuspended in FACS buffer (PBS+2% FBS+1 mM EDTA) containing 4,6-diamidino-2-phenylindole (DAPI, 1 μg/mL). […] Viable cells were those excluding DAPI. Rex1::GFPd2 expression was measured by GFP mean fluorescence intensity (MFI) and quantified using FCS Express v7.0.5 or FlowJo v10.8.0.

[12] = [U-13C] glucose, three NSCLC cell lines (FIG. 6B)

N#C/C(=C\c1cn(-c2ccccc2)c2ccccc12)C(=O)O [UK-5099]
incorporation of glucose-derived carbons into TCA cycle metabolites ([1]; 10 μM UK-5099 (MPCi) for 24 h (FIG. 10C)): reduced | mal+2/cit+2 ratio ([1]; 10 μM UK-5099 (MPCi) for 24 h (FIG. 10D)): repressed | incorporation of glucose-derived carbons into TCA cycle metabolites ([2]; ESCs, 10 μM UK-5099 (MPCi) for 24 h (FIG. 10E)): reduced | mal+2/cit+2 ratio ([2]; ESCs, 10 μM UK-5099 (MPCi) for 24 h (FIG. 10F)): repressed

CC(=O)[O-].[Na+] [acetate, sodium acetate]
histone acetylation [3]: restored | de novo lipid synthesis (fractional labeling of palmitate) [4]: contributed | markers of naïve pluripotency ([5]; 2i/LIF withdrawal for 40 h, 5 mM sodium acetate (FIGS. 12I-12J)): tended to increase | effects of ACL loss on exit from pluripotency ([5]; Acly-edited ESCs, 5 mM sodium acetate, qRT-PCR, Rex1::GFPd2 MFI and AP-positive colonies (FIGS. 12I-12K)): does not reverse | processivity (malate m+2/citrate m+2 ratio) ([2]; S/L-cultured ESCs, 5 mM sodium acetate for 24 h (FIGS. 15A-15D)): enhances | decline in viability observed in Acly-edited clones [6]: only minimally rescued | ESC self-renewal [7]: promotes | colony formation ability (AP-positive colonies) [8]: tended to increase

COc1ccc(-c2ccccc2)cc1NS(=O)(=O)c1cc(Cl)cc(Cl)c1O [BMS-303141]
ratio of cit+2/cit+4 [9]: significantly increased | mal+2/cit+2 ratio ([10]; [U-13C] glucose, three NSCLC cell lines (FIG. 1E)): increased | fraction of citrate m+2 [10, 12]: only a minor effect | proportion of malate containing two labeled carbons (malate m+2) [10, 12]: increased | glutamine anaplerosis ([10]; [U-13C] glutamine, three NSCLC cell lines (FIG. 6C)): did not uniformly affect | decrease in enrichment of the m+2 isotopologue of malate relative to citrate (Mal+2/Cit+2) ([2]; [U-13C] glucose, serum/LIF ESCs, 50 μM for 24 h (FIG. 2B)): mitigated | downregulation of Rex1::GFPd2 reporter activity following 2i/LIF withdrawal [11]: almost completely prevented
